In patent US10703765B2 (priority 2014, dated 2020):
Structures can show the parent of a compound that is named as a salt.

The compounds below were run against human σ1 receptor (Homo sapiens, UniProt Q99720) (assay: biochemical). Details: not given.
Type: binding
Design: μ and σ1 dual binding: key to the marks not given beside the values

Chain of human σ1 receptor (Q99720 whole entry): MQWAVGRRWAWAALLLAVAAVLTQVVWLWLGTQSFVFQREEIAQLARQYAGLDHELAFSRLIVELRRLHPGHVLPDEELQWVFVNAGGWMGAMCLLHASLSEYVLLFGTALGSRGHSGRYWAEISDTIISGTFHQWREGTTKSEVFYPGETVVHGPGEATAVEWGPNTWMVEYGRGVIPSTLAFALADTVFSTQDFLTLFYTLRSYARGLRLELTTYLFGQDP

SMILES	μ and σ1 dual binding	Ki
Nc1nc(CCN2CCC3(CC2)CN(Cc2ccc(C(F)(F)F)cn2)C(=O)C2(CC2)O3)cs1 [Example 308, 8-[2-(2-aminothiazol-4-yl)ethyl]-12-{[5-(trifluoromethyl)pyridin-2-yl]methyl}-4-oxa-8,12-diazadispiro[2.1.5.3]tridecan-13-one trihydrochloride]	++	
CC1OC2(CCN(CCc3ccccc3)CC2)CN(Cc2nccn2C)C1=O.Cl (centres unmarked) [Example 172, 2-methyl-4-((1-methyl-1H-imidazol-2-yl)methyl)-9-phenethyl-1-oxa-4,9-diazaspiro[5.5]undecan-3-one hydrochloride]	++	
CC1OC2(CCN(CCc3ccc(N)cc3)CC2)CN(c2ccccc2)C1=O (centres unmarked) [Example 228, 9-(4-aminophenethyl)-2-methyl-4-phenyl-1-oxa-4,9-diazaspiro[5.5]undecan-3-one]		< 500 nM
CC(=O)Nc1cccc(CCN2CCC3(CC2)CN(c2ccccc2)C(=O)C(C)O3)n1.Cl (centres unmarked) [Example 254, N-(6-(2-(2-methyl-3-oxo-4-phenyl-1-oxa-4,9-diazaspiro[5.5]undecan-9-yl)ethyl)pyridin-2-yl)acetamide hydrochloride]	++	
CC1OC2(CCN(CCc3ccccn3)CC2)CN(c2cnccc2C(F)(F)F)C1=O.Cl (centres unmarked) [Example 101, 2-methyl-9-(2-(pyridin-2-yl)ethyl)-4-(4-(trifluoromethyl)pyridin-3-yl)-1-oxa-4,9-diazaspiro[5.5]undecan-3-one hydrochloride]	++	
C[C@@H]1OC2(CCN(C[C@H](O)c3ccccc3)CC2)CN(c2ccccc2)C1=O [Example 151d, (S)-9-((R)-2-hydroxy-2-phenylethyl)-2-methyl-4-phenyl-1-oxa-4,9-diazaspiro[5.5]undecan-3-one]		< 500 nM
CC1OC2(CCN(CCc3cccc(OCCO)c3)CC2)CN(c2ccccc2F)C1=O (centres unmarked) [Example 282, 4-(2-fluorophenyl)-9-(3-(2-hydroxyethoxy)phenethyl)-2-methyl-1-oxa-4,9-diazaspiro[5.5]undecan-3-one]		< 100 nM

Same assay, conditions: read-out: μ and σ1 dual binding

SMILES	Ki
CC1OC2(CCN(CCc3cccc(O)c3)CC2)CN(c2ccccc2F)C1=O (centres unmarked) [Example 298, 4-(2-fluorophenyl)-9-(3-hydroxyphenethyl)-2-methyl-1-oxa-4,9-diazaspiro[5.5]undecan-3-one]	< 100 nM
CC1OC2(CCN(CCc3ccccc3)CC2)CN(c2nccs2)C1=O (centres unmarked) [Example 209, 2-methyl-9-phenethyl-4-(thiazol-2-yl)-1-oxa-4,9-diazaspiro[5.5]undecan-3-one hydrochloride]	< 500 nM
CC1OC2(CCN(CCc3ccccc3)CC2)CN(c2ccc(C(F)(F)F)nc2)C1=O (centres unmarked) [Example 212, 2-methyl-9-phenethyl-4-(6-(trifluoromethyl)pyridin-3-yl)-1-oxa-4,9-diazaspiro[5.5]undecan-3-one hydrochloride]	> 500 nM
c1ccc(CCN2CCC3(CC2)CN(Cc2ccccc2)CCO3)cc1 [Example 324, 4-benzyl-9-phenethyl-1-oxa-4,9-diazaspiro[5.5]undecane dihydrochloride]	< 100 nM
CS(=O)(=O)Nc1cccc(CCN2CCC3(CC2)CN(c2ccccc2)C(=O)C2(CC2)O3)c1 [Example 260, N-[3-(2-{13-oxo-12-phenyl-4-oxa-8,12-diazadispiro[2.1.5.3]tridecan-8-yl}ethyl)phenyl]methanesulfonamide hydrochloride]	< 500 nM
O=C1COC2(CCN(CCc3ccccc3)CC2)CN1Cc1ccccc1 [Example 153, 4-benzyl-9-phenethyl-1-oxa-4,9-diazaspiro[5.5]undecan-3-one hydrochloride]	< 100 nM
C[C@@H]1OC2(CCN(CCc3ccccc3)CC2)CN(c2ccccc2)C1=O [Example 10b, (S)-2-methyl-9-phenethyl-4-phenyl-1-oxa-4,9-diazaspiro[5.5]undecan-3-one]	< 100 nM
